Experimental data as given in patent US4025649A, “Acetic acid derivatives having pharmacological activity and compositions containing the same” (priority 1975, dated 1977).

Assays:
[1] = tested on: pentylenetetrazol-induced seizure; assay: Anticonvulsant activity: pentylenetetrazol-induced seizure; type: in vivo; conditions: for % of protection: i.p. 15 min before 125 mg/kg pentylenetetrazol i.p., deaths noted at 3 hours, dose mg/kg: A 160, B 175, C 185, F 185, G 175; for anticonvulsant activity compared with sodium di-n-propylacetate / duration of anticonvulsant action compared with sodium di-n-propylacetate: pentylenetetrazol test
Protocol: This test is carried out on mice with a view to determining whether the compounds of this invention, when given preventively by intraperitoneal route, are capable at certain doses of protecting some of the animals against the epileptic seizure produced by an adequate and predetermined dose of pentylenetetrazol which would be 100% fatal in the absence of the compound.
The test was carried out on batches of 10 mice. Each batch of animals received an intraperitoneal dose of the compound to be studied so that each batch received a higher dose than the preceding batch. Fifteen minutes after administration of the compound to be tested, the animals were each given 125 mg/kg of pentylenetetrazol by intraperitoneal route. The percentage of deaths was noted 3 hours after injection of this latter compound and the result was expressed as a percentage of protection.

[2] = Solubility of the isolated acid; type: physicochemical; conditions: free acid
Excerpt: In this manner, 9.6 g of 3-n-propyl-hexanoic acid were obtained in the form of a colourless, slightly viscous liquid, insoluble in water and soluble in the organic solvents.

[3] = tested on: anoxic seizure induced by gallamine triiodoethylate; assay: Antianoxic activity: anoxic seizure induced by gallamine triiodoethylate; type: in vivo, mouse; conditions: mice; for antianoxic activity compared with sodium di-n-propylacetate: at the doses studied in Table II
Protocol: The injection of a sufficient dose of a synthetic curariform substance such as gallamine triiodoethylate provokes in the mouse paralysis of the diaphragm. The animal then dies through asphyxia.
An intraperitoneal dose of the compound to be studied was administered to batches of 20 mice five minutes before the administration of 16 mg/kg of gallamine triiodoethylate by intraperitoneal route. The dose of the compound to be tested was calculated so that each batch received a higher dose than the preceding batch.
The period of time of survival was registered by controlling cardiac arrest by means of an electrocardiogram.
Under these conditions, an antianoxic effect produces an increase in the period of survival of the animal.

[4] = in vivo; conditions: ip, mouse, intraperitoneal route
[5] = tested on: γ-aminobutyric α-ketoglutaric transaminase (GABA T); assay: Inhibition of GABA T in vitro (coupled spectrophotometric test with GABASE); type: biochemical, Pseudomonas fluorescens; conditions: comparison of Ki with sodium di-n-propylacetate (0.8 m mol/ml)
Protocol: This test was undertaken "in vitro" in the absorption cell of a double-beam U.V. spectrophotometer.
The activity of GABA T was measured by following the reduction rate (v) of NADP^+ which corresponds to the evolution of the optical density at 340 mμ on the spectrophotometer.
Determination of the activity rate of GABA T by the principle hereabove described can be effected with either limiting concentrations or a saturating concentration of one of the substrates, in the present case GABA, in each instance, in the presence of a saturating concentration of the second substrate namely α-ketoglutarate.
This effectiveness is represented by the constant Ki or constant of inhibition which determines the affinity of the enzyme (GABA T) for the inhibitor.
This constant is expressed in units of concentration, in the present case, in m mol per ml and can be determined by plotting all the curves corresponding to 1/v = f (I) for a saturating concentration of GABA and for different limiting concentrations of GABA.
The following experimental procedure was used:
In the absorption cell (optical passage: 1 cm, volume: about 1 ml) the following solutions were introduced.
0.5 ml of a 1.5 molar solution of sodium sulphate
0.05 ml of a molar buffer solution of pH = 7.9
0.05 ml of a 0.1 molar solution of mercapto-ethanol
0.05 ml of a 20 mg/ml solution of NADP^+
0.125 ml of a solution of GABA
0.03 ml of a 40 mg/ml solution of GABASE (namely a bacterial enzyme isolated from Pseudomonas fluorescens containing a mixture of γ-aminobutyric α-ketoglutaric transaminase and succinosemialdehyde dehydrogenase).
0.125 ml of a solution of the compound to be studied.
If the compound of the invention was in the form of a water-insoluble acid, its sodium salt was used after adjustment to a pH of about 7.9 by adding a titrated solution of sodium hydroxide.
Different measurements of optical density were effected by varying the concentration of GABA and the concentration of the compound under study. Control assays were also effected by replacing the solution of the compound to be studied by 0.125 ml of water.
The content of the absorption cell was allowed to incubate for 10 minutes at 30° C. and then the enzymatic reaction was started by adding 0.1 ml of a 0.02 molar solution of α-ketoglutarate in the absorption cell. The final volume was 1.03 ml. The reaction was then followed by spectrophotometric recording of the reduction rate of the NADP^+ at 340 mμ and at 30° C. The optical density was automatically registered every 30 seconds.

[6] = tested on: pentylenetetrazol-induced seizure; assay: Anticonvulsant activity: pentylenetetrazol-induced seizure; type: in vivo; conditions: mice; for % of the animals still protected one hour after administration: 195 mg/kg of Compound B, 210 mg/kg of Compound C
[7] = i.p. 5 min before 16 mg/kg gallamine triiodoethylate i.p., dose mg/kg: A 360, D 250, E 150, F 210, G 355
[8] = mice, 195 mg/kg of Compound B, 210 mg/kg of Compound C

SMILES	% of protection ([1]; mice)	antianoxic activity compared with sodium di-n-propylacetate [3]	% of increase in the period of survival in comparison with the controls [3, 7]	LD50 [4]	activity as GABA T inhibitor compared with sodium di-n-propylacetate [5]	also measured
CCCC(CCC)CC(=O)O [Compound A, 3-n-Propyl-hexanoic acid]	100%	slightly more active	60%	500 mg/kg	more active	anticonvulsant activity compared with sodium di-n-propylacetate ([1]; mice): more active; % protection against the pentylenetetrazol-induced seizure ([1]; mice, 105 mg/kg by intraperitoneal route): 85%; solubility in the organic solvents ([2]; organic solvents): soluble; solubility in water ([2]; water): insoluble; MTD ([4]; read-out: LDO, maximum tolerated dose (M.T.D.), highest dose which provokes no deaths): > 400 mg/kg
CCCC(CCC)CCC(=O)O [Compound B, 4-n-Propyl-heptanoic acid]	85%	–	–	350 mg/kg	slightly less active	duration of anticonvulsant action compared with sodium di-n-propylacetate ([1]; mice): longer period of time; % protection against the pentylenetetrazol-induced seizure [1, 8]: about 100%; % of the animals still protected one hour after administration [6]: 40%
CCCC(CCC)CCCC(=O)O [Compound C, 5-n-Propyl-octanoic acid]	85%	–	–	350 mg/kg	–	% of the mice protected against the pentylenetetrazol-induced seizure ([1]; 125 mg/kg by intraperitoneal route): 65%; duration of anticonvulsant action compared with sodium di-n-propylacetate ([1]; mice): longer period of time; % protection against the pentylenetetrazol-induced seizure [1, 8]: about 100%; % of the animals still protected one hour after administration [6]: 70%
CC(C)CC(=O)O [Compound D, 3-methyl-butanoic acid]	–	appreciably more active	73%	–	–	–
CCC(CC)CC(=O)O [Compound E, 3-ethyl-pentanoic acid]	–	appreciably more active	59%	–	–	–
CCCCC(CCCC)CC(=O)O [Compound F, 3-n-Butyl-heptanoic acid]	95%	slightly more active	29%	300 mg/kg	slightly less active	anticonvulsant activity compared with sodium di-n-propylacetate ([1]; mice): more active
CCCC(=CC(=O)O)CCC [Compound G, 3-n-Propyl-2-hexenoic acid]	75%	slightly more active	50%	–	more active	–
CCCC(CCC)C(=O)[O-].[Na+] [sodium di-n-propylacetate, reference compound]	–	–	–	–	–	% of animals protected against the pentylenetetrazol-induced seizure ([1]; mice, 250 mg/kg, same conditions): 100%; % of increase in the period of survival in comparison with the controls ([3]; 330 mg/kg, same conditions (i.p. 5 min before 16 mg/kg gallamine triiodoethylate i.p.)): 40%; % protection of the animals one hour after administration ([6]; 250 mg/kg): 20%
